inhibition, relative solubility and IC50 data for 18 compounds are collected here from the COVID Moonshot data (paper PMC11187573), “Identification of SARS-CoV-2 Mpro inhibitors through deep reinforcement learning for de novo drug design and computational chemistry approaches” (RSC Medicinal Chemistry, 2024).

SMILES strings stand for the structures.

Series [1] has as its target SARS-CoV-2 Main Protease (SARS-CoV-2) (UniProt P0DTD1).
The target is the same in series [2]. This is another data set of the same source.

`Cc1cccc(NC(=O)C(C#N)C(=O)C2CCCC2)c1` (stereo unspecified) had a relative solubility at 20 uM of 1 and a relative solubility at 100 uM of 1. Besides, the inhibition (in general, the drop in the measured response relative to a control, in per cent) in series [1] (20.0 µM) came out at 0.78%. The inhibition in series [1] (50.0 µM) turned out to be 0%. Also, in series [2] (50.0 µM), the inhibition is -8.28%.

The compound `O=C1C(=O)N(Cc2ccc(Br)cc2)c2ccccc21` came in with a relative solubility at 20 uM of 1.01 and a relative solubility at 100 uM of 0.9. The IC50 – broadly, the midpoint of a concentration-inhibition curve – in series [1] stood at 0.747 µM. For the same compound, in series [1] (50.0 µM), the inhibition amounted to 100%. For the same compound, in series [2] (20.0 µM), the inhibition was -3.27%. Further, in series [2] (50.0 µM), the inhibition stood at 0.439%.

As for `Nc1ncncc1CNC(=O)Nc1ccccc1OCCn1ccnc1`, the relative solubility at 20 uM came out at 1 and the relative solubility at 100 uM is 1. Moreover, in series [1] (20.0 µM), the inhibition is 1.47%. In series [1] (50.0 µM), the inhibition was determined as 9.19%. Further, the inhibition in series [2] (50.0 µM) turned out to be 15.8%.

`Cc1cc(C)cc(NC(=O)Cc2cnn(C)c2C)c1` had a relative solubility at 20 uM of 1 and a relative solubility at 100 uM of 1.01. For the same compound, in series [1] (50.0 µM), the inhibition came out at 0%. For the same compound, the inhibition in series [2] (20.0 µM) was -12.1%. Besides, the inhibition in series [2] (50.0 µM) was -5.28%.

For `O=C(CCl)N1CCN(Cc2nc(-c3cccs3)no2)CC1`, the relative solubility at 20 uM was 0.98 and the relative solubility at 100 uM was determined as 0.93. Also, the inhibition in series [1] (50.0 µM) was found to be 0%. For the same compound, the inhibition in series [2] (20.0 µM) came out at 6.55%. In addition, in series [2] (50.0 µM), the inhibition worked out at 17%.

In turn, `C#Cc1ccc(CNC(=O)N2CCOCC2)cc1` gave a relative solubility at 20 uM of 1 and a relative solubility at 100 uM of 1. The inhibition in series [1] (20.0 µM) amounted to 0%. Further, the inhibition in series [1] (50.0 µM) was found to be 0%. The inhibition in series [2] (20.0 µM) stood at 1.4%. The inhibition in series [2] (50.0 µM) was found to be 2.46%.

`COc1cccc(N2CCN(C(=O)c3cc(=O)[nH]c4ccccc34)CC2)c1` yielded a relative solubility at 20 uM of 0.99 and a relative solubility at 100 uM of 0.95. This compound also showed an IC50 in series [1] of 19.7 µM. In addition, in series [1] (50.0 µM), the inhibition turned out to be 83.3%. For the same compound, the inhibition in series [2] (20.0 µM) is 78.5%. Also, the inhibition in series [2] (50.0 µM) was 90.8%.

The compound `O=C(NCCNc1ccccc1)c1cc(=O)[nH]c2ccccc12` showed a relative solubility at 20 uM of 1 and a relative solubility at 100 uM of 0.98. For the same compound, in series [1] (50.0 µM), the inhibition came out at 35.4%. In series [2] (20.0 µM), the inhibition was determined as 32%. Besides, the inhibition in series [2] (50.0 µM) came to 61.6%.

With `COc1ccc(-c2cccc(S(=O)(=O)N3CCN(C(C)=O)CC3)c2)cc1`, the relative solubility at 20 uM came to 0.95 and the relative solubility at 100 uM came out at 0.93. The inhibition in series [1] (50.0 µM) worked out at 0%. The inhibition in series [2] (20.0 µM) was -3.55%. Besides, in series [2] (50.0 µM), the inhibition stood at 2.93%.

Consider `COc1ccc2nc(C)cc(C(=O)NN)c2c1`, for which the relative solubility at 20 uM was found to be 1 and the relative solubility at 100 uM was found to be 1. The inhibition in series [1] (20.0 µM) turned out to be 0%. Further, the inhibition in series [1] (50.0 µM) amounted to 0%. In addition, the inhibition in series [2] (50.0 µM) is 22.2%.

Take `CS(=O)(=O)NCCc1cccc(O)c1`: the relative solubility at 20 uM stood at 1 and the relative solubility at 100 uM was 1. Besides, the inhibition in series [1] (20.0 µM) was -2.45%. Also, the inhibition in series [1] (50.0 µM) came to 1.46%. For the same compound, the inhibition in series [2] (20.0 µM) is -1.8%. Further, the inhibition in series [2] (50.0 µM) was 0.0445%.

Take `NS(=O)(=O)c1ccc(C(=O)N2Cc3ccccc3C(c3ccccc3)C2)cc1` (stereo unspecified): the relative solubility at 20 uM came out at 0.95 and the relative solubility at 100 uM came to 0.96. In addition, in series [1] (20.0 µM), the inhibition was found to be 0%. Moreover, in series [2] (20.0 µM), the inhibition turned out to be 0.809%. Further, in series [2] (50.0 µM), the inhibition was 8.23%.

In turn, `C=CC(=O)N(C1CCC2(CCCC2)C1)C(C(=O)NC(C)(C)C)c1cccnc1` (stereo unspecified) registered a relative solubility at 20 uM of 0.98 and a relative solubility at 100 uM of 0.99. Moreover, the inhibition in series [1] (20.0 µM) was found to be 0%. Further, the inhibition in series [2] (20.0 µM) amounted to 5.22%. Also, the inhibition in series [2] (50.0 µM) is 6.35%.

`Cc1cc(C)cc(CS(=O)(=O)N[C@@]23COC[C@@H]2C3)c1` (stereo in doubt) had a relative solubility at 20 uM of 1 and a relative solubility at 100 uM of 1. The inhibition in series [1] (50.0 µM) turned out to be 0%. Besides, in series [2] (20.0 µM), the inhibition was 6.03%. For the same compound, the inhibition in series [2] (50.0 µM) is -9.38%.

As to `Cc1ccnc(C)c1NC(=O)NCc1cccc(N2CCOCC2)c1`, the relative solubility at 20 uM is 1 and the relative solubility at 100 uM was found to be 1. Besides, in series [1] (50.0 µM), the inhibition was determined as 0%. Besides, the inhibition in series [2] (20.0 µM) stood at 2.7%. Further, the inhibition in series [2] (50.0 µM) was -9.74%.

`COc1ccccc1N1CCN(C(=O)c2cc(=O)[nH]c3ccccc23)CC1` registered a relative solubility at 20 uM of 1 and a relative solubility at 100 uM of 0.99. The inhibition in series [1] (50.0 µM) is 14.8%. Also, the inhibition in series [2] (20.0 µM) turned out to be 39%. In addition, the inhibition in series [2] (50.0 µM) came out at 62.8%.

As to `O=C(c1cc(=O)[nH]c2ccc(F)cc12)N1CCN(S(=O)(=O)c2ccccc2)CC1`, the relative solubility at 20 uM is 0.98 and the relative solubility at 100 uM worked out at 0.98. Also, the inhibition in series [1] (50.0 µM) came to 16.2%. The inhibition in series [2] (20.0 µM) came to 3.84%. In addition, the inhibition in series [2] (50.0 µM) came out at 11.9%.

`O=C(CCl)N1CCN(C(c2ccccc2)C2CCOCC2)CC1` (stereo unspecified) yielded a relative solubility at 20 uM of 1 and a relative solubility at 100 uM of 0.99. The compound also gave an IC50 in series [1] of 1.69 µM. Further, the inhibition in series [1] (50.0 µM) is 84.8%. In addition, in series [2], the IC50 came out at 20.7 µM. The inhibition in series [2] (20.0 µM) was 80.8%. Further, the inhibition in series [2] (50.0 µM) came to 103%.
